A word on the IC50: it is the point on the concentration scale where inhibition reaches its midpoint. Low readings indicate greater potency, high ones weaker potency.

IC50 data for 58 molecules are collected here from patent US20250026748A1, “N-(5-SUBSTITUTED-[(1,3,4-THIADIAZOLYL) OR (THIAZOLYL)])(SUBSTITUTED)CARBOXAMIDE COMPOUNDS AND USE THEREOF FOR INHIBITING HUMAN POLYMERASE THETA” (Repare Therapeutics Inc., priority 2021, published 2025).

PolQ ATPase enzyme (1-894), sequence (O75417 1-894): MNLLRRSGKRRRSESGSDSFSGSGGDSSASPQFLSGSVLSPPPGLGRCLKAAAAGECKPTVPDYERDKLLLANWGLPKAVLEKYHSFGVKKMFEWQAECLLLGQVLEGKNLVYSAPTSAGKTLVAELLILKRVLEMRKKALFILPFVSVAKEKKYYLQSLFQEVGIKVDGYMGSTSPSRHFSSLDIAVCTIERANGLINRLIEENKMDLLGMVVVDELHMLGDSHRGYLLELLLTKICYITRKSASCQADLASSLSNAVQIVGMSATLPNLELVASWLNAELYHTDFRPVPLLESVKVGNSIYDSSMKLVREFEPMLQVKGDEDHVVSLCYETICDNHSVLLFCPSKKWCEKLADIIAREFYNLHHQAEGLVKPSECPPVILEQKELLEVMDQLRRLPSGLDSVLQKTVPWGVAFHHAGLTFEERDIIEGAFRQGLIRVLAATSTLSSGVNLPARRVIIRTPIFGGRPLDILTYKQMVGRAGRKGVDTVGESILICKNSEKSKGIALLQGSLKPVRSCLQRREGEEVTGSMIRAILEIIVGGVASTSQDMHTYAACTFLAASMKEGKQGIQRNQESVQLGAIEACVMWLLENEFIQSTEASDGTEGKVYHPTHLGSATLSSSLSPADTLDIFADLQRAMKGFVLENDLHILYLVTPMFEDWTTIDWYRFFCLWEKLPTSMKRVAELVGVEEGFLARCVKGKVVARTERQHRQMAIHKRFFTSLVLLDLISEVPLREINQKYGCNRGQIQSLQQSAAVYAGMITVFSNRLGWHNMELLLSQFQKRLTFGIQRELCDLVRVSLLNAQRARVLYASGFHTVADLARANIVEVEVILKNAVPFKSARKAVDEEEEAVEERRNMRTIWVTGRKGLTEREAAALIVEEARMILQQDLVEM

This experiment addresses PolQ ATPase enzyme (1-894) (Homo sapiens (Human), UniProt O75417). Kind of experiment: Polθ ATPase enzymatic assay (0.5 nM enzyme concentration), ADP-Glo. In kind it is biochemical. Particulars: average IC50; 0.5 nM PolQ ATPase enzyme (1-894). As for the experimental part:
PolQ ATPase enzyme (1-894) at 0.5 nM is incubated with a 10-point concentration response of inhibitors for 15 min at rt in the following buffer: 50 mM Tris Cl pH 7.5, 10% glycerol, 5 mM DTT, 10 mM MgCl2, 0.1 mg/ml BSA. Following pre-incubation with inhibitors, DNA (Fork C) at 20 nM and ATP at 100 μM are added to start the reaction. Enzymatic reaction proceeds at rt for 180 min ATP consumption is measured using the ADP-Glo assay from Promega. Luminescence is read on the Envision and IC50 are determined using the variable slope 4-parameters equation.
Oligos are annealed by heating at 9500 for 5 min in the following buffer (10 mM Tris-HCl pH7.5, 50 mM NaCl, 1 mM EDTA) and cooled to rt. […]
A general note: ADP-Glo first removes unused ATP, then detects ADP through luciferase.
`COc1cnc(C(F)F)cc1-c1cc(C#CCN2CCS(=O)(=O)CC2)ccc1C(=O)Nc1nnc(C#CC2CC2)s1` [Compound 242] registered an IC50 of 0.35 nM.

`COc1cnc(C(F)F)cc1-c1cc(N2CCC(C)(C)CC2=O)ncc1C(=O)Nc1nnc(C#CC2CC2)s1` [Compound 353] showed a 50% inhibitory concentration (IC50) of 0.49 nM.

Molecule `COc1cnc(Cl)cc1-c1cn(C)c(=O)cc1C(=O)Nc1nnc(C#CC2CC23CC3)s1` (stereo not shown) [Compound 107] yielded an IC50 of 0.76 nM.

As to `COc1cnc(C(F)F)cc1-c1cc(Cl)ncc1C(=O)Nc1ncc(C#CC2CC2)s1` [Compound 289], 0.88 nM corresponded to half-maximal inhibition (IC50).

`COc1cnc(C(F)F)cc1-c1cc(-c2cnn(C3CCOCC3)c2)ccc1C(=O)Nc1nnc(C#CC2CC2)s1` [Compound 188]: the 50% inhibitory concentration (IC50) came to 1.9 nM.

In turn, `COc1cnc(C(F)F)cc1-c1cc(-c2cnccn2)ncc1C(=O)Nc1nnc(C#CC2CC2)s1` [Compound 172] yielded a 50% inhibitory concentration (IC50) of 1.5 nM.

The molecule `COc1ccc(C(F)F)cc1-c1cc(C(=O)N(C)C)ncc1C(=O)Nc1nnc(C#CC2CC2)s1` [Compound 293] registered an IC50 of less than 0.25 nM.

In turn, `COc1cnc(C(F)F)cc1-c1cc(CC#N)ncc1C(=O)Nc1nnc(C#CC2CC2)s1` [Compound 226] gave an IC50 of 0.61 nM.

For the molecule `CNC(=O)Cn1cc(-c2cc(C(F)(F)F)cnc2OC)c(C(=O)Nc2nnc(C#CC3CC3)s2)cc1=O` [Compound 89], the 50% inhibitory concentration (IC50) came out at 1.2 nM.

Turning to `CNC(=O)Cn1cc(-c2nc(C(F)(F)F)ccc2OC)c(C(=O)Nc2nnc(C#CC3CC3)s2)cc1=O` [Compound 52], the IC50 was 2.4 nM.

In the case of `COc1cnc(C(F)F)cc1-c1cc(N2CC(C)CCC2=O)ncc1C(=O)Nc1nnc(C#CC2CC2)s1` (stereo not shown) [Compound 389], the IC50 is less than 0.25 nM.

`CNC(=O)Cn1cc(-c2cc(Cl)ncc2OC(F)F)c(C(=O)Nc2nnc(C#CC3CC3)s2)cc1=O` [Compound 77] gave an IC50 of less than 0.25 nM.

Molecule `Cc1cc(C#Cc2nnc(NC(=O)c3ccncc3-c3cc(Cl)ncc3OC(F)F)s2)n[nH]1` [Compound 106] had an IC50 of less than 0.25 nM.

`COc1cnc(C(F)F)cc1-c1cc(CC(=O)N(C)C)ncc1C(=O)Nc1nnc(C#CC2CC2)s1` [Compound 245] yielded an IC50 of less than 0.25 nM.

Take `COc1ccc(C(F)(F)F)cc1-c1cc(-c2ccn(C)n2)ncc1C(=O)Nc1nnc(C#CC2CC2)s1` [Compound 309]: the half-maximal inhibitory concentration (IC50) was 0.99 nM.

The molecule `CNC(=O)Cc1ccc(C(=O)Nc2nnc(C#CC3CC3)s2)c(-c2cc(C(F)F)ncc2OC)c1` [Compound 230] gave an IC50 of less than 0.25 nM.

`COc1cnc(C(F)F)cc1-c1cc(N2CC3(CC(C(=O)N(C)C)C3)C2)ncc1C(=O)Nc1nnc(C#CC2CC2)s1` [Compound 129] displayed an IC50 of 1.6 nM.

For the molecule `COc1ccc(C(F)F)cc1-c1cc(C#N)ncc1C(=O)Nc1nnc(C#CC2CC2)s1` [Compound 321], it took 0.41 nM to reach half-maximal inhibition (IC50).

As to `COc1cnc(C(F)F)cc1-c1cc(N2CC3(C2)CC(C)(O)C3)ncc1C(=O)Nc1nnc(C#CC2CC2)s1` [Compound 130, N-(5-(cyclopropylethynyl)-1,3,4-thiadiazol-2-yl)-2′-(difluoromethyl)-6-(6-hydroxy-6-methyl-2-azaspiro[3.3]heptan-2-yl)-5′-methoxy-[4 4′-bipyridine]-3-carboxamide], the IC50 was 2.1 nM.

`COc1cnc(C(F)F)cc1-c1cc(-c2cnc(C)o2)ncc1C(=O)Nc1nnc(C#CC2CC2)s1` [Compound 410] returned an IC50 of 0.31 nM.

Consider `COc1ccc(C(F)(F)F)cc1-c1cc(C2CCN(C)C2=O)ncc1C(=O)Nc1nnc(C#CC2CC2)s1` (stereo not shown) [Compound 297], for which the concentration for half-maximal inhibition (IC50) was found to be 0.69 nM.

The molecule `COc1cnc(C(F)F)cc1-c1cc(C#CC(C)(C)CO)ncc1C(=O)Nc1nnc(C#CC2CC2)s1` [Compound 241] had a concentration for half-maximal inhibition (IC50) of 0.33 nM.

Consider `COc1cnc(C(F)F)cc1-c1cc(CCC2(O)CCS(=O)(=O)CC2)ccc1C(=O)Nc1nnc(C#CC2CC2)s1` [Compound 256], for which the 50% inhibitory concentration (IC50) came to 2.9 nM.

`COc1cnc(C(F)F)cc1-c1cc(CC(=O)N(C)C)ccc1C(=O)Nc1ncc(C#CC2CC2)s1` [Compound 215]: 0.31 nM corresponded to half-maximal inhibition (IC50).

Consider `COc1cnc(Cl)cc1-c1cn2cc(C(=O)N(C)C)nc2cc1C(=O)Nc1nnc(C#CC2CC2)s1` [Compound 314], for which it took 0.49 nM to reach half-maximal inhibition (IC50).

As to `COc1cnc(C(F)F)cc1-c1cc(N2CCN(C(=O)OC(C)C)CC2=O)ncc1C(=O)Nc1nnc(C#CC2CC2)s1` [Compound 382], the IC50 was less than 0.25 nM.

For `COc1cnc(Cl)cc1-c1cc(-c2cc[nH]n2)ccc1C(=O)Nc1nnc(C#CC2CC2)s1` [Compound 46], half-maximal inhibition (IC50) was put at 0.2 nM.

In the case of `COc1cnc(C(F)(F)F)cc1-c1cn(C)c(=O)cc1C(=O)Nc1nnc(C#CC2CC23CC3)s1` (stereo not shown) [Compound 58], the 50% inhibitory concentration (IC50) turned out to be 0.91 nM.

In turn, `Cc1nnc(Cn2cc(-c3cc(C(F)(F)F)ccc3Cl)c(C(=O)Nc3nnc(C#CC4CC4)s3)cc2=O)o1` [Compound 61] yielded a 50% inhibitory concentration (IC50) of less than 0.25 nM.

For `COc1cnc(C(F)F)cc1-c1cc(C#CC2CCCOC2)ncc1C(=O)Nc1nnc(C#Cc2cc(C)[nH]n2)s1` (stereo not shown) [Compound 146], the IC50 was less than 0.25 nM.

On to `COc1cnc(C(F)F)cc1-c1cc(C#N)ccc1C(=O)Nc1nnc(C#CC2CC2)s1` [Compound 251], for which the midpoint of inhibition, the IC50, lay at 0.45 nM.

Turning to `COc1cnc(C(F)F)cc1-c1cc(Oc2ccn(C)n2)ncc1C(=O)Nc1nnc(C#CC2CC2)s1` [Compound 175], the IC50 is 0.51 nM.

As for `COc1cnc(C(F)F)cc1-c1cc(-c2noc(C)n2)ncc1C(=O)Nc1nnc(C#CC2CC2)s1` [Compound 428], the IC50 was less than 0.25 nM.

With `COc1cnc(C(F)F)cc1-c1cc(Oc2nccs2)ccc1C(=O)Nc1nnc(C#CC2CC2)s1` [Compound 301], the half-inhibitory concentration (IC50) was less than 0.25 nM.

On to `COc1cnc(C(F)F)cc1-c1cc(-n2cc(F)ccc2=O)ncc1C(=O)Nc1nnc(C#CC2CC2)s1` [Compound 413], for which the IC50 is less than 0.25 nM.

In turn, `COc1cnc(C(F)F)cc1-c1cc(-n2ncccc2=O)ncc1C(=O)Nc1nnc(C#CC2CC2)s1` [Compound 421] showed an IC50 of less than 0.25 nM.

Regarding `COc1cnc(C(F)F)cc1-c1cc(-c2cnn(C)c2)ncc1C(=O)Nc1nnc(C#CC2CC2)s1` [Compound 252], the half-inhibitory concentration (IC50) was less than 0.25 nM.

On to `COc1cnc(C(F)F)cc1-c1cc(N2CCOCC2)ccc1C(=O)Nc1nnc(C#CC2CC2)s1` [Compound 239], for which 18 nM corresponded to half-maximal inhibition (IC50).

`COc1cnc(C(F)F)cc1-c1cn2cc(C(=O)N(C)C)nc2cc1C(=O)Nc1nnc(C#CC2CC2)s1` [Compound 315] yielded a 50% inhibitory concentration (IC50) of 4.5 nM.

`COc1cnc(C(F)F)cc1-c1cc(-c2cn(C)c(C)n2)ccc1C(=O)Nc1nnc(C#CC2CC2)s1` [Compound 412]: the half-inhibitory concentration (IC50) came out at 0.25 nM.

Molecule `COc1cnc(C(F)F)cc1-c1cc(N2CCn3cncc3C2=O)ncc1C(=O)Nc1nnc(C#CC2CC2)s1` [Compound 356] registered a concentration for half-maximal inhibition (IC50) of less than 0.25 nM.

With `COc1cnc(C(F)F)cc1-c1cc(N2CCNCC2=O)ncc1C(=O)Nc1nnc(C#CC2CC2)s1` [Compound 364], the IC50 came to 0.559 nM.

As to `COc1ccc(F)cc1-c1cnccc1C(=O)Nc1nnc(C#Cc2cc(C#N)[nH]n2)s1` [Compound 101], the IC50 is less than 0.25 nM.

As for `COc1cnc(C(F)F)cc1-c1cc(N2CCN(C)C3(CC3)C2=O)ncc1C(=O)Nc1nnc(C#CC2CC2)s1` [Compound 432, N-(5-(cyclopropylethynyl)-1,3,4-thiadiazol-2-yl)-2′-(difluoromethyl)-5′-methoxy-6-(4-methyl-8-oxo-4,7-diazaspiro[2.5]octan-7-yl)-[4,4′-bipyridine]-3-carboxamide], the IC50 was less than 0.25 nM.

The molecule `COc1cnc(C(F)F)cc1-c1cc(CC#N)ncc1C(=O)Nc1ncc(C#CC2CC2)s1` [Compound 198] displayed an IC50 of 0.53 nM.

Regarding `COc1cnc(C(F)F)cc1-c1cc(-n2ncc(OC)c(Cl)c2=O)ncc1C(=O)Nc1nnc(C#CC2CC2)s1` [Compound 452], the IC50 was less than 0.25 nM.

`COc1cnc(C(F)F)cc1-c1ccncc1C(=O)Nc1nnc(C#CC2CC2)s1` [Compound 316] came in with a concentration for half-maximal inhibition (IC50) of 1.6 nM.

For the molecule `O=C(Nc1nnc(C#CC2CC2)s1)c1cnc(-n2ccccc2=O)cc1-c1cc(C(F)F)ncc1Cl` [Compound 403], the IC50 was less than 0.25 nM.

On to `COc1cnc(C(F)F)cc1-c1cc(N2CCCC(C)C2=O)ncc1C(=O)Nc1nnc(C#CC2CC2)s1` (stereo not shown) [Compound 390], for which the IC50 is less than 0.25 nM.

In turn, `COc1cnc(C(F)F)cc1-c1cc(N2C(=O)CCC2=O)ccc1C(=O)Nc1nnc(C#CC2CC2)s1` [Compound 216] yielded an IC50 of 1.5 nM.

With `COc1cnc(C(F)(F)F)cc1-c1cnccc1C(=O)Nc1nnc(C2CC2c2ccc(C#N)cc2)s1` (stereo not shown) [Compound 90], the half-maximal inhibitory concentration (IC50) amounted to 0.8 nM.

Consider `COc1cnc(Cl)cc1-c1cn(Cc2nccs2)c(=O)cc1C(=O)Nc1nnc(C#CC2CC2)s1` [Compound 333], for which the half-maximal inhibitory concentration (IC50) stood at 3.8 nM.

Regarding `COc1cnc(C(F)F)cc1-c1cc(-c2cc[nH]n2)ncc1C(=O)Nc1nnc(C#CC2CC2)s1` [Compound 145, N-(5-(cyclopropylethynyl)-1,3,4-thiadiazol-2-yl)-2′-(difluoromethyl)-5′-methoxy-6-(1H-pyrazol-3-yl)-[4,4′-bipyridine]-3-carboxamide], the IC50 is less than 0.25 nM.

`Cc1cc(C#Cc2nnc(NC(=O)c3cc(=O)n(C)cc3-c3cc(Cl)ncc3OC(F)F)s2)n[nH]1` [Compound 98] gave an IC50 of 0.54 nM.

Consider `COc1ccc(C(F)F)cc1-c1cn(CC(N)=O)c(=O)cc1C(=O)Nc1nnc(C#CC2CC2)s1` [Compound 87], for which the concentration for half-maximal inhibition (IC50) turned out to be 0.36 nM.

`COc1cnc(C(F)F)cc1-c1cc(N(C)C)ncc1C(=O)Nc1nnc(C#CC2CC2)s1` [Compound 286] showed an IC50 of 21 nM.

As to `COc1cnc(Cl)cc1-c1cn(Cc2csc(C)n2)c(=O)cc1C(=O)Nc1nnc(C#CC2CC2)s1` [Compound 332], the concentration for half-maximal inhibition (IC50) amounted to 15 nM.

As to `COc1cnc(C(F)F)cc1-c1cc(N2C(=O)COCC2C)ncc1C(=O)Nc1nnc(C#CC2CC2)s1` (stereo not shown) [Compound 400], the 50% inhibitory concentration (IC50) was found to be 0.46 nM.
